# Results published in publication PMC12130451 (Scientific Reports, 2025).
# pKi: −log10 of the molar value.
# Experiments:
# [1] = molecular target: AChE (Electrophorus electricus, UniProt O42275); assay: Enzyme kinetic study; type: biochemical, electric eel
# [2] = molecular target: acetylcholinesterase (AChE, E.C. 3.1.1.7, Type V-S) (Electrophorus electricus, UniProt O42275); assay: AChE inhibition, modified Ellman method; type: biochemical, electric eel; conditions: read-out: % Inhibition at 50 µM, AChE, Mean ± SE
# Sequence of acetylcholinesterase (AChE, E.C. 3.1.1.7, Type V-S) (O42275 24-633): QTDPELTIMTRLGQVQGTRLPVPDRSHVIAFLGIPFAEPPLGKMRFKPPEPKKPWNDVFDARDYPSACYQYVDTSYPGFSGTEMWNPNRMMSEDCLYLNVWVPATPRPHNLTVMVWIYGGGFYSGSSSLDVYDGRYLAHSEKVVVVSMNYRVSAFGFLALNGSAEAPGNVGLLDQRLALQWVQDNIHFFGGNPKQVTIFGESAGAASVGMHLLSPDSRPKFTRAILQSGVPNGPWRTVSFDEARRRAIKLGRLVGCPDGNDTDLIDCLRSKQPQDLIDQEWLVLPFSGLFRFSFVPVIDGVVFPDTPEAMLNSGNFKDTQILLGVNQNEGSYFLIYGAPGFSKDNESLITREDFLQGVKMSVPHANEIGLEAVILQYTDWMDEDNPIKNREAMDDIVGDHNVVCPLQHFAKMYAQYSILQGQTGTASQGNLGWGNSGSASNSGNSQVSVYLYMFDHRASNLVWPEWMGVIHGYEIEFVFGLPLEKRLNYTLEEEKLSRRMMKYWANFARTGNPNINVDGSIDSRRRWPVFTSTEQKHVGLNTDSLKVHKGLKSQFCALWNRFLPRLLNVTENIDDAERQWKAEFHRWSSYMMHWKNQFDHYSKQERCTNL
# Sequence of AChE (O42275 24-633): as above
Compound,pKi [1],"secondary inhibition constant (Kis) ([1]; AChE, 1/Vmax vs inhibitor concentration) [µM]","type of inhibition ([1]; AChE, Lineweaver-Burk plot)",inhibition at 50 µM [2] [%]
"CC(C)(C)OC(=O)NC1CCCN(C(=O)/C=C/c2ccccc2Cl)C1 (stereo not shown) [5b, tert-butyl (E)-(1-(3-(2-chlorophenyl)acryloyl)piperidin-3-yl)carbamate]",5.00,36.16,mix-type inhibition,–
"COc1ccc(OC)c(/C=C/C(=O)N2CCCC(NC(=O)OC(C)(C)C)C2)c1 (stereo not shown) [5o, tert-butyl (E)-(1-(3-(2,5-dimethoxyphenyl)acryloyl)piperidin-3-yl)carbamate]",–,–,–,44.1
